According to patent US20190352268A1, “CANNABINOID RECEPTOR MEDIATING COMPOUNDS” (The USA, as represented by the Secretary, Department of …, priority 2015, published 2019):
Like-named read-outs stand apart in the source and are kept apart here. One block for each molecule: values may come before it.

How the values were obtained:
DIO mice = assay: Mice with diet-induced obesity (DIO), 14 days oral treatment; assay type: in vivo, mouse
Method: Data represent mean±SEM from 5-6 mice per group.*(P<0.05), indicate significant difference from […] diet control. ^# indicates significant treatment effect (P<0.05) relative to vehicle-treated HFD group.
Data represent mean±SEM from 5-6 mice per group. *(P<0.05), indicate significant difference from (STD) diet control. ^# indicates significant treatment effect (P<0.05) relative to vehicle-treated HFD group. […] Glucose tolerance and insulin sensitivity were determined on the last 2 days of treatment, using i.p. glucose tolerance and insulin sensitivity tests.

[1] = test system: CCl4-induced liver fibrosis; assay: CCl4-induced liver fibrosis model in mice; assay type: in vivo, mouse; conditions: for CCl4-induced increase in immunoreactive iNOS: liver
Method: CCl4-induced liver fibrosis was generated by intraperitoneal injection of CCL4 (1 ml/kg, diluted 1:10 corn oil), twice weekly for 8 weeks. […] Data represent mean±SEM from 7-8 mice per group.*P<0.05 relative to control. ^#indicates significant treatment effect (P<0.05) relative to CCl4-treated vehicle group.
Fibrosis results from excessive extracellular matrix deposition by myofibroblasts accompanying chronic inflammation and wound healing, and is a key pathogenic process in many organs, including kidneys, lung, and liver.

CB1 [2] = molecular target: T1, CB1 (Mus musculus, UniProt P47746)
[3] = In vivo metabolism in mouse, plasma LC-MS/MS; conditions: 1 h after oral administration at 10 mg/kg in mice
ZDF rats = assay: Zucker diabetic fatty (ZDF) rat model of type 2 diabetes; assay type: in vivo; conditions: 10 mg/kg/day oral gavage, 7 days
Text: The Zucker diabetic fatty (ZDF) rat is a commonly used animal model of type 2 diabetes with progressive β-cell loss resulting in extreme hyperglycemia. […] (Jourdan et al, Nature Med 2013, 19-(9):1132-1140).

[4] = Tissue levels (brain and plasma) after administration to mice; conditions: 1 hour after administration of 10 mg/kg to mice
CB1 [5] = molecular target: T1, CB1; assay: CB1 radioligand displacement assay in mouse brain membranes; assay type: binding; parameters: radioligand displacement assay in mouse brain membranes; from tissue; host or cells: mouse brain membranes; conditions: Table 2; read-out: Ki CB1
liver fibrosis = conditions: Teixeira-Clerc, Nature Med 2006; cited from earlier work
recombinant human AMPK = assay: Recombinant AMPK activity assay (Cyclex kit); assay type: biochemical
Text: Guanides and biguanides, such as metformin, are effective as antidiabetic agents linked to their AMPK activating properties (Hardie et al., Chem Biol. 2012, […]; 1222-1236). Guanidine-containing analogs in certain embodiments were screened for activation of recombinant human AMPK, using an assay kit (Cyclex, Nagona, Japan), as illustrated in FIG. 8.
Activators of AMP-activated protein kinase (AMPK), such as guanidines of biguanides such as metformin are useful for the treatment of diabetes owing to their AMPK activating property (Hardie, et al., Chem & Biol 2012, 19(10); 1222-1236). Guanidine analogues of certain embodiments were screened for AMPK activation by using a recombinant AMPK activity assay.

[6] = DIO mice, 10 mg/kg/day, 14 days
[7] = 10 mg/kg/day orally for 4 weeks

T1 sequence (P47746 whole entry): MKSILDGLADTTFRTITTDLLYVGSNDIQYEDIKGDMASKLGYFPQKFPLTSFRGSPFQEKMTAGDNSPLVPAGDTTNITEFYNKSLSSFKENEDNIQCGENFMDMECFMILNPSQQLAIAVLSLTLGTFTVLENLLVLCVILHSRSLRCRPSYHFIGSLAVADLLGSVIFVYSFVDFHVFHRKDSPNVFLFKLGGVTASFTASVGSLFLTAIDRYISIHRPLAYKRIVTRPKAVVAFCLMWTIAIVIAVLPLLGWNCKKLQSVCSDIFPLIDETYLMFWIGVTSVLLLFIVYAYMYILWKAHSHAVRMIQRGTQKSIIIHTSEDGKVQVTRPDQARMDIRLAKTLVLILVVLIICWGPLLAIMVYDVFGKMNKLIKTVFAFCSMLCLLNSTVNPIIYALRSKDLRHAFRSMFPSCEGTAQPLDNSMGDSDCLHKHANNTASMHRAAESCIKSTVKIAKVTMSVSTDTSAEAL

Compound: C/C(N)=N\C(=N/S(=O)(=O)c1ccc(Cl)cc1)N1CC(c2ccccc2)C(c2ccc(Cl)cc2)=N1 (racemic) [Compound 2, rac-N-(1-aminoethylidene)-3-(4-chlorophenyl)-N-((4-chlorophenyl)sulfonyl)-4-phenyl-4,5-dihydro-1H-pyrazole-1-carboximidamide]
HFD-induced glucose intolerance (DIO mice; [6]): abrogated | body weight (DIO mice; [6]): reduced | food intake (DIO mice; [6]): reduced | hepatic TG (DIO mice; [6]): reduced | hyperinsulinemia (DIO mice; [6]): abrogated | hyperleptinemia (DIO mice; [6]): reduced | insulin resistance (DIO mice; [6]): abrogated | insulin resistance (insulin sensitivity test) (DIO mice; DIO mice, last 2 days of treatment): nearly completely normalized | glucose intolerance (i.p. glucose tolerance test) (DIO mice; DIO mice, last 2 days of treatment, i.p. glucose load 1.5 g/kg): nearly completely normalized | In vivo Comments (DIO mice; mouse, in vivo): -anti- diabetic -anti- obesity | liver fibrosis / collagen deposition by Sirius Red and Masson's trichrome staining [1, 7]: more effective than rimonabant | α-SMA, Procollagen-1 and Fibronectin-1 mRNA [1, 7]: more effective than rimonabant | CCl4-induced increase in immunoreactive iNOS [1, 7]: attenuated | Functional GTPγS binding CB1 Emax (CB1 [2]): -20 % basal | in vivo metabolism, metabolite generation in plasma [3]: underwent in vivo metabolism to liberate the amidine moiety and a metabolite | plasma c-peptide (ZDF rats): prevented | plasma insulin (ZDF rats): prevented | blood glucose (ZDF rats; 10 mg/kg/day): prevented the progressive increase

Compound: CC(=N)N/C(=N\S(=O)(=O)c1ccc(Cl)cc1)N1C[C@H](c2ccccc2)C(c2ccc(Cl)cc2)=N1 [Compound 2E1]
liver fibrosis / collagen deposition by Sirius Red and Masson's trichrome staining [1, 7]: more effective than rimonabant | CCl4-induced increase in immunoreactive iNOS [1, 7]: dramatically attenuated | anti-fibrotic efficacy in liver fibrosis (overall) ([1]; versus rimonabant): higher anti-fibrotic efficacy than rimonabant | plasma levels, oral versus i.p. administration [4]: comparable after oral or i.p. administration

Compound: NC(=NC(=NS(=O)(=O)c1ccc(C(F)(F)F)cc1)N1CC(c2ccccc2)C(c2ccc(Cl)cc2)=N1)c1ccc(F)cc1F (stereo not shown) [Compound 80]
Ki (CB1 [5]): 6.6 nM

Compound: CC(C)(C)C(N)=NC(=NS(=O)(=O)c1ccc(C(F)(F)F)cc1)N1CC(c2ccccc2)C(c2ccc(Cl)cc2)=N1 (stereo not shown) [Compound 81]
Ki (CB1 [5]): 3.4 nM

Compound: NC(=NC(=NS(=O)(=O)c1ccc(C(F)(F)F)cc1)N1CC(c2ccccc2)C(c2ccc(Cl)cc2)=N1)c1ccc(Cl)cc1 (stereo not shown) [Compound 82]
Ki (CB1 [5]): 16 nM

Compound: NC(=NC(=NS(=O)(=O)c1ccc(C(F)(F)F)cc1)N1CC(c2ccccc2)C(c2ccc(Cl)cc2)=N1)n1cccn1 (stereo not shown) [Compound 84]
Ki (CB1 [5]): 28 nM

Compound: Cc1cc(C)n(C(N)=NC(=NS(=O)(=O)c2ccc(C(F)(F)F)cc2)N2CC(c3ccccc3)C(c3ccc(Cl)cc3)=N2)n1 (stereo not shown) [Compound 85]
Ki (CB1 [5]): 1.5 nM

Compound: NC(=NC(=NS(=O)(=O)c1ccc(I)cc1)N1CC(c2ccccc2)C(c2ccc(Cl)cc2)=N1)c1ccc(Cl)cc1 (stereo not shown) [Compound 86]
Ki (CB1 [5]): 11 nM

Compound: NC(=NC(=NS(=O)(=O)c1ccc(I)cc1)N1CC(c2ccccc2)C(c2ccc(Cl)cc2)=N1)c1ccc(F)cc1 (stereo not shown) [Compound 87]
Ki (CB1 [5]): 12 nM

Compound: NC(=NC(=NS(=O)(=O)c1ccc(I)cc1)N1CC(c2ccccc2)C(c2ccc(Cl)cc2)=N1)c1ccc(F)cc1F (stereo not shown) [Compound 88]
Ki (CB1 [5]): 4.8 nM

Compound: CC(C)(C)C(N)=NC(=NS(=O)(=O)c1ccc(I)cc1)N1CC(c2ccccc2)C(c2ccc(Cl)cc2)=N1 (stereo not shown) [Compound 89]
Ki (CB1 [5]): 4.1 nM

Compound: Cc1c(C(=O)NN2CCCCC2)nn(-c2ccc(Cl)cc2Cl)c1-c1ccc(Cl)cc1 [rimonabant]
anti-fibrotic effect (liver fibrosis): anti-fibrotic effect | effect on AMPK activity (recombinant human AMPK): no effect | effect on AMPK activity (recombinant human AMPK; 1 μM): no effect

Further lines, results first:

Ki (CB1 [5]): 1.8 nM
Compound: CC(=O)N/C(N)=N/C(=N/S(=O)(=O)c1ccc(OC(F)(F)F)cc1)N1CC(c2ccccc2)C(c2ccc(Cl)cc2)=N1 (stereo not shown) [Compound 90]

Ki (CB1 [5]): 1.3 nM
Compound: CC(=O)N/C(N)=N/C(=N/S(=O)(=O)c1ccc(C(C)(C)C)cc1)N1CC(c2ccccc2)C(c2ccc(Cl)cc2)=N1 (stereo not shown) [Compound 91]

Ki (CB1 [5]): 138 nM
Compound: CC(N)=NC(=NS(=O)(=O)c1ccc(OC(F)(F)F)cc1)N1CC(c2ccccc2)C(c2ccc(Cl)cc2)=N1 (stereo not shown) [Compound 97]

Ki (CB1 [5]): 48 nM
Compound: CC(N)=NC(=NS(=O)(=O)c1ccc(C(C)(C)C)cc1)N1CC(c2ccccc2)C(c2ccc(Cl)cc2)=N1 (stereo not shown) [Compound 98]

Ki (CB1 [5]): 16 nM
Compound: CC(N)=NC(=NS(=O)(=O)c1ccc(C#N)cc1)N1CC(c2ccccc2)C(c2ccc(Cl)cc2)=N1 (stereo not shown) [Compound 100]

Ki (CB1 [5]): 5.5 nM
Compound: NC(=NC(=NS(=O)(=O)c1ccc(C(F)(F)F)cc1)N1CC(c2ccccc2)C(c2ccc(Cl)cc2)=N1)NC(=O)/C=C/c1ccccc1 (stereo not shown) [Compound 101]
